According to ChEMBL document CHEMBL3507680, “University of Dundee, Gates Library screen for HepG2 cell viability”:

Experiment: Human HepG2 cell viability assay in 384 well format
Type: toxicity, cell-based
Design: dose 125 nL, time 70.5 hour; cytotoxicity at 70.5 h: concentration not given beside the values
Settings: HepG2 cells, read-out: Inhibition

Compound | cytotoxicity at 70.5 h [%]
Cc1cccc(CN(Cc2nc3c(cnn3C)c(=O)[nH]2)C2CC2)c1 | -6.88
O=C(c1cccnc1-n1cncn1)N1CCN(CC2CC2)CC1 | -7.39
O=C(NCCc1noc(C2CCCO2)n1)c1cn2ccsc2n1 (stereo not given) | -4.56
CCC(C)NS(=O)(=O)c1ccc(/C=C\c2onc(C)c2NC(C)=O)cc1 (stereo not given) | -4.12
O=C1NCCCCC1NC(=O)N1CCc2ccccc21 (stereo not given) | -14.4
COCCOc1ccnc(-c2noc([C@@H]3CCCN3CC(C)C)n2)c1 | -5.97
CC(C)n1cnnc1CN(C)Cc1cnc(-c2ccco2)nc1 | -1.59
COCCN1CCN(CC(=O)N(C)Cc2ccsc2)CC1 | -6.03
CC(=O)Nc1cc(CCC2CCN(C(=O)c3ccccn3)CC2)ccn1 | -14.2
Cc1ccc(OCCN(C)C(=O)CCCN2CCCC2=O)c(C)c1 | -5.15
Cc1cnn(C2CCCN(C(=O)c3ccc(N4CCCC4)nn3)C2)c1 (stereo not given) | 1.64
CC(=O)NCc1cc2n(n1)CCN(Cc1cc(-c3ccccc3)no1)C2 | -18.6
Cc1cc(N2CCOC(c3ccc(N(C)C)cn3)C2)nc(N)n1 (stereo not given) | -6.31
NC(=O)c1cc(C2CCCN(CCc3ccc4c(c3)CCO4)C2)n[nH]1 (stereo not given) | -19
CCn1c(CN(C)C(=O)c2ccc(O)nc2)nc2ccccc21 | -5.75
COCC(=O)N1Cc2cn(C)nc2C(COc2cccnc2)C1 (stereo not given) | 9.02
CCOCC1c2c(ncn2C)CCN1C(=O)c1cscn1 (stereo not given) | 21.3
CN(C)CCN1C(=O)CCC12CCCN(C(=O)N(C)C)CC2 (stereo not given) | 0.00398
Cn1cnc2c1CCN(CC(O)c1ccc3c(c1)OCCO3)C2 (stereo not given) | 9.43
O=C(CC1CC1)N[C@@H]1CN(Cc2ccccn2)C[C@@H]2CCCO[C@@H]21 | -0.597
c1ccc(-c2nc(CN3CCn4c(nnc4C4CC4)C3)cs2)cc1 | -11.8
CC(=O)N1N=C(c2ccccc2)OC1C(=O)NCC(=O)OC(C)(C)C (stereo not given) | -2.16
CN(C)S(=O)(=O)NC1CCCc2c1cnn2-c1ccc(C(C)(C)C)cc1 (stereo not given) | -2.4

Compound | cytotoxicity at 70.5 h [%]
COc1cccc(C(O)CN2CCN(C(=O)CCC(C)C)CC2)c1 (stereo not given) | 9.11
Cc1ccc(CN(CCCn2ccnc2)Cc2c[nH]cn2)s1 | -0.992
COc1cccc(Cl)c1C(C(=O)O)N1CCC(O)(c2cccnc2)CC1 (stereo not given) | -3.34
Cc1ccc(C(=O)N2CCN(Cc3ccccc3)CC2)n1C | 21
CC1COCCN1Cc1nc(-c2ccc(Br)s2)no1 (stereo not given) | 1.52
CC(C)(C)NC(=O)[C@@H]1CNC[C@]12Cc1ccccc1C(=O)N2 | -4.03
COc1cccc(CC(C)NC(=O)NCc2ccn(C)c2)c1 (stereo not given) | 0.709
Cc1cnn(CC2CN(Cc3nc4ccccc4c(=O)[nH]3)CCO2)c1 (stereo not given) | -4.67
Clc1ccccc1C1(c2ccnc(-c3ccncc3)n2)CCNCC1 | -5.92
N#Cc1cn(CCCN2CCc3ccccc3C2)c(=O)[nH]c1=O | -5.98
Cc1cccc(-n2cnc(Cl)c2C(=O)O)c1 | -16.5
CC(C)c1nc(CN(C)C(=O)CCNC(=O)c2ccccc2F)no1 | 19.8
CCc1nccn1CCC(=O)N1C[C@H]2CC[C@@H]1CN(C(=O)N(C)C)C2 | -3.14
CSCCC(NC(=O)c1ccc2ccccc2n1)C(=O)O (stereo not given) | 4.89
Cc1ccccc1CN(C)C(=O)CN1CCOC(Cn2cncn2)C1 (stereo not given) | 1.73
CCCc1cc(C(=O)N2CCC3(CCCN(CCOC)C3=O)C2)cs1 (stereo not given) | -7.15
CC(C)c1nn(C)c(N(C)C)c1CNCc1ccnn1C | 18
CN1CCN(C[C@@H]2CN(Cc3c(Cl)cncc3Cl)C[C@@H]2CO)CC1 | -11.7
CCCN1C(=O)c2ccccc2C1OC (stereo not given) | -6.48
Cc1nn(C)c2cnn(CC(=O)NCc3ccccc3F)c12 | -8.04
O=C(NCCS(=O)(=O)N1CCN(c2ncccn2)CC1)c1ccccc1 | -7.9
O=C(CNC(Cn1cccn1)c1ccccc1)Nc1cnccn1 (stereo not given) | 13
